Measured values: article PMC8822125, “RW-BP100-4D, a Promising Antimicrobial Candidate With Broad-Spectrum Bactericidal Activity” (Frontiers in Microbiology, 2022)
Converted amounts (≈) assume the structure as drawn. Where a SMILES comes first, the peptide text is derived from it.

Legend:
[1] = test system: Staphylococcus aureus ATCC29213; experiment: MIC/MBC, broth microdilution; type: cell-based; conditions: Table 1; broth microdilution CLSI M100-S25, MH broth, 37°C, 18 h, three independent repeats
[2] = test system: Escherichia coli ATCC25922; conditions: Table 1; broth microdilution CLSI M100-S25, MH broth, 37°C, 18 h, three independent repeats
sheep red blood cells = sheep red blood cells in PBS, 37°C, 1 h, OD576, relative to melittin, mean ± SD, three repeats; for Hemolytic rate, 50 μg/mL: 50 μg/mL peptide; for Hemolytic rate, 100 μg/mL: 100 μg/mL peptide; for Hemolytic rate, 150 μg/mL: 150 μg/mL peptide; for Hemolytic rate, 300 μg/mL: 300 μg/mL peptide;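 for all read-outs here: hemolysis expressed in % from supernatant absorbance, with PBS-treated cells as 0% baseline and melittin as 100%, peptide mixed 1:1 with an 8% v/v erythrocyte suspension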
MAC-T cells = conditions: peptide 150 μg/mL, 24 h, WST-1, mean ± SD, three repeats
RAW264.7 cells = conditions: peptide 150 μg/mL, 24 h, WST-1, mean ± SD, three repeats
various microorganisms = experiment: MIC/MBC, summary statements over several strains; type: cell-based; conditions: summary of Table 1

SMILES	MIC Staphylococcus aureus ATCC29213 [1] [µg/mL]	MIC Escherichia coli ATCC25922 [2] [µg/mL]	Hemolytic rate, 50 μg/mL (sheep red blood cells) [%]	Hemolytic rate, 100 μg/mL (sheep red blood cells) [%]	Hemolytic rate, 150 μg/mL (sheep red blood cells) [%]	Hemolytic rate, 300 μg/mL (sheep red blood cells) [%]	Cell survival rate, MAC-T (MAC-T cells) [%]	Cell survival rate, RAW264.7 (RAW264.7 cells) [%]	MIC against S. aureus ATCC29213 and E. coli ATCC25922 (both strains together) (various microorganisms) [µg/mL]
CC[C@H](C)[C@H](NC(=O)[C@H](CCCNC(=N)N)NC(=O)[C@H](CCCNC(=N)N)NC(=O)[C@H](Cc1ccccc1)NC(=O)[C@H](CC(C)C)NC(=O)[C@@H](CCCNC(=N)N)NC(=O)[C@@H](N)CCCNC(=N)N)C(=O)N[C@@H](CC(C)C)C(=O)N[C@@H](CCCNC(=N)N)C(=O)N[C@@H](Cc1c[nH]c2ccccc12)C(=O)N[C@@H](CC(C)C)C(N)=O [RW-BP100-2D] (HELM PEPTIDE1{R.[dR].L.F.R.R.I.L.R.W.L.[am]}$$$$V2.0)	25 (≈ 15.8 µM)	12 (≈ 7.58 µM)	4.83 ± 1.08	5.99 ± 0.79	39.16 ± 1.75	62.12 ± 6.27	63.07 ± 3.23	6.83 ± 5.69	
CC[C@H](C)[C@H](NC(=O)[C@H](CCCNC(=N)N)NC(=O)[C@H](CCCNC(=N)N)NC(=O)[C@H](Cc1ccccc1)NC(=O)[C@@H](CC(C)C)NC(=O)[C@H](CCCNC(=N)N)NC(=O)[C@@H](N)CCCNC(=N)N)C(=O)N[C@@H](CC(C)C)C(=O)N[C@@H](CCCNC(=N)N)C(=O)N[C@@H](Cc1c[nH]c2ccccc12)C(=O)N[C@@H](CC(C)C)C(N)=O [RW-BP100-3D] (HELM PEPTIDE1{R.R.[dL].F.R.R.I.L.R.W.L.[am]}$$$$V2.0)	25 (≈ 15.8 µM)	50 (≈ 31.6 µM)	3.49 ± 0.76	4.04 ± 0.20	38.13 ± 3.12	55.73 ± 5.27	50.63 ± 2.36	7.69 ± 7.89	
CC[C@H](C)[C@H](NC(=O)[C@H](CCCNC(=N)N)NC(=O)[C@@H](CCCNC(=N)N)NC(=O)[C@H](Cc1ccccc1)NC(=O)[C@H](CC(C)C)NC(=O)[C@H](CCCNC(=N)N)NC(=O)[C@@H](N)CCCNC(=N)N)C(=O)N[C@@H](CC(C)C)C(=O)N[C@@H](CCCNC(=N)N)C(=O)N[C@@H](Cc1c[nH]c2ccccc12)C(=O)N[C@@H](CC(C)C)C(N)=O [RW-BP100-5D] (HELM PEPTIDE1{R.R.L.F.[dR].R.I.L.R.W.L.[am]}$$$$V2.0)	6 (≈ 3.79 µM)	6 (≈ 3.79 µM)	1.26 ± 0.54	2.49 ± 0.72	29.72 ± 0.94	51.41 ± 4.64	77.84 ± 5.63	39.05 ± 1.65	3 to 12
CC[C@@H](C)[C@@H](NC(=O)[C@@H](CCCNC(=N)N)NC(=O)[C@@H](CCCNC(=N)N)NC(=O)[C@@H](Cc1ccccc1)NC(=O)[C@@H](CC(C)C)NC(=O)[C@@H](CCCNC(=N)N)NC(=O)[C@H](N)CCCNC(=N)N)C(=O)N[C@H](CC(C)C)C(=O)N[C@H](CCCNC(=N)N)C(=O)N[C@H](Cc1c[nH]c2ccccc12)C(=O)N[C@H](CC(C)C)C(N)=O [RW-BP100-All-D] (HELM PEPTIDE1{[dR].[dR].[dL].[dF].[dR].[dR].[dI].[dL].[dR].[dW].[dL].[am]}$$$$V2.0)	6 (≈ 3.79 µM)	6 (≈ 3.79 µM)	1.94 ± 0.94	2.75 ± 0.23	30.39 ± 2.11	51.40 ± 1.94	14.23 ± 2.37	23.37 ± 1.58	3 to 12
CC[C@H](C)[C@H](NC(=O)[C@H](CCCNC(=N)N)NC(=O)[C@H](CCCNC(=N)N)NC(=O)[C@H](Cc1ccccc1)NC(=O)[C@H](CC(C)C)NC(=O)[C@H](CCCNC(=N)N)NC(=O)[C@@H](N)CCCNC(=N)N)C(=O)N[C@@H](CC(C)C)C(=O)N[C@@H](CCCNC(=N)N)C(=O)N[C@@H](Cc1c[nH]c2ccccc12)C(=O)N[C@H](CC(C)C)C(N)=O [RW-BP100-11D] (HELM PEPTIDE1{R.R.L.F.R.R.I.L.R.W.[dL].[am]}$$$$V2.0)	>50	>50	0.65 ± 0.60	1.42 ± 0.15	17.36 ± 1.92	46.97 ± 6.45	77.81 ± 5.28	83.27 ± 4.56	> 50
CC[C@H](C)[C@H](NC(=O)[C@H](CCCNC(=N)N)NC(=O)[C@H](CCCNC(=N)N)NC(=O)[C@H](Cc1ccccc1)NC(=O)[C@H](CC(C)C)NC(=O)[C@H](CCCNC(=N)N)NC(=O)[C@H](N)CCCNC(=N)N)C(=O)N[C@@H](CC(C)C)C(=O)N[C@@H](CCCNC(=N)N)C(=O)N[C@@H](Cc1c[nH]c2ccccc12)C(=O)N[C@@H](CC(C)C)C(N)=O [RW-BP100-1D] (HELM PEPTIDE1{[dR].R.L.F.R.R.I.L.R.W.L.[am]}$$$$V2.0)	25 (≈ 15.8 µM)	12 (≈ 7.58 µM)	4.61 ± 0.47	5.49 ± 0.23	39.81 ± 0.20	52.88 ± 3.06	52.71 ± 5.68	9.55 ± 2.45	
CC[C@H](C)[C@H](NC(=O)[C@H](CCCNC(=N)N)NC(=O)[C@H](CCCNC(=N)N)NC(=O)[C@H](Cc1ccccc1)NC(=O)[C@H](CC(C)C)NC(=O)[C@H](CCCNC(=N)N)NC(=O)[C@@H](N)CCCNC(=N)N)C(=O)N[C@H](CC(C)C)C(=O)N[C@@H](CCCNC(=N)N)C(=O)N[C@@H](Cc1c[nH]c2ccccc12)C(=O)N[C@@H](CC(C)C)C(N)=O [RW-BP100-8D] (HELM PEPTIDE1{R.R.L.F.R.R.I.[dL].R.W.L.[am]}$$$$V2.0)	12 (≈ 7.58 µM)	12 (≈ 7.58 µM)	0.91 ± 0.38	1.38 ± 0.58	26.19 ± 0.10	50.11 ± 3.17	54.78 ± 2.65	20.30 ± 3.26	3 to 12
CC[C@H](C)[C@H](NC(=O)[C@H](CCCNC(=N)N)NC(=O)[C@H](CCCNC(=N)N)NC(=O)[C@H](Cc1ccccc1)NC(=O)[C@H](CC(C)C)NC(=O)[C@H](CCCNC(=N)N)NC(=O)[C@@H](N)CCCNC(=N)N)C(=O)N[C@@H](CC(C)C)C(=O)N[C@H](CCCNC(=N)N)C(=O)N[C@@H](Cc1c[nH]c2ccccc12)C(=O)N[C@@H](CC(C)C)C(N)=O [RW-BP100-9D] (HELM PEPTIDE1{R.R.L.F.R.R.I.L.[dR].W.L.[am]}$$$$V2.0)	25 (≈ 15.8 µM)	25 (≈ 15.8 µM)	0.63 ± 0.24	1.53 ± 0.09	18.14 ± 0.20	45.18 ± 2.41	92.50 ± 2.36	91.33 ± 5.63	
CC[C@H](C)[C@H](NC(=O)[C@H](CCCNC(=N)N)NC(=O)[C@H](CCCNC(=N)N)NC(=O)[C@H](Cc1ccccc1)NC(=O)[C@H](CC(C)C)NC(=O)[C@H](CCCNC(=N)N)NC(=O)[C@@H](N)CCCNC(=N)N)C(=O)N[C@@H](CC(C)C)C(=O)N[C@@H](CCCNC(=N)N)C(=O)N[C@H](Cc1c[nH]c2ccccc12)C(=O)N[C@@H](CC(C)C)C(N)=O [RW-BP100-10D] (HELM PEPTIDE1{R.R.L.F.R.R.I.L.R.[dW].L.[am]}$$$$V2.0)	50 (≈ 31.6 µM)	50 (≈ 31.6 µM)	0.31 ± 0.37	1.28 ± 0.19	19.20 ± 2.16	45.08 ± 4.70	94.41 ± 4.26	92.19 ± 6.32	
CC[C@@H](C)[C@@H](NC(=O)[C@H](CCCNC(=N)N)NC(=O)[C@H](CCCNC(=N)N)NC(=O)[C@H](Cc1ccccc1)NC(=O)[C@H](CC(C)C)NC(=O)[C@H](CCCNC(=N)N)NC(=O)[C@@H](N)CCCNC(=N)N)C(=O)N[C@@H](CC(C)C)C(=O)N[C@@H](CCCNC(=N)N)C(=O)N[C@@H](Cc1c[nH]c2ccccc12)C(=O)N[C@@H](CC(C)C)C(N)=O [RW-BP100-7D] (HELM PEPTIDE1{R.R.L.F.R.R.[dI].L.R.W.L.[am]}$$$$V2.0)	25 (≈ 15.8 µM)	25 (≈ 15.8 µM)	0.53 ± 1.12	1.11 ± 0.19	16.17 ± 3.36	45.65 ± 5.13	96.41 ± 3.75	93.74 ± 1.25	
